Assay results: patent US9512139B2, “Conformationally constrained, fully synthetic macrocyclic compounds” (POLYPHOR AG, priority 2009, dated 2016)

Key:
[1] = Metabolic stability assay, human microsomes; assay type: in vitro ADME; settings: both, human, microsomes, 10 µM; for Metabolic Stability 60 min hum [% remain.]: 1 h
[2] = Metabolic stability assay, rat microsomes (values in parentheses); assay type: in vitro ADME; settings: value in parentheses
in vitro [3] = assay type: in vitro ADME, human; settings: human, plasma, 10 µM; for Plasma Stability 240 min hum [% remain.]: 4 h
[4] = Plasma stability assay, rat plasma (values in parentheses); assay type: in vitro ADME; settings: value in parentheses
[5] = Metabolic stability assay, CD-1 mouse microsomes; assay type: in vitro ADME; settings: both, CD-1, mouse, microsomes, 10 µM; for Metabolic Stability 60 min mouse [% remain.]: 1 h
Motilin Receptor = target: T1, Motilin Receptor (Homo sapiens, UniProt O43193); test: Ca2+ assay (FLIPR) for the GPCR motilin receptor, agonist and antagonist mode; assay type: cell-based; settings: antagonist mode
T1 construct: host or cells: Ca2+ optimized hematopoietic cell lines (rat)
Method: Ca^2+ Assays for the GPCRs Motilin Receptor, Prostaglandin F (FP) Receptor, 5-hydroxytryptamine 2B (5-HT2B) Receptor, and Purinoreceptor P2Y1
Assays were performed using on a FLIPR^TETRA fluorometric imaging plate reader (Molecular Devices) with ScreenWorks Version 2 (Molecular Devices) as device operating and data analysis software.
Dose dependent agonist and antagonist activities were determined. Percentage activation and percentage inhibition values were determined.
Percentage activation was determined upon initial addition of the sample compounds followed by 10 minutes incubation at 25° C. Following compound incubation, reference agonists were added at EC80 to determine percentage inhibition.
Reference agonists were purchased from reputable commercial vendors and prepared according to each ligand's specifications. All handling of ligands were done to ensure proper control throughout the experiments.
Example compounds were weighed on a Microbalance (Mettler MX5) and dissolved in 100% DMSO to a final concentration of 2.5 mM and subsequently diluted into the assay buffer.
The Assay buffer was a supplemented HBSS (Hank's Balanced Salt Solution). HBSS was supplemented with 20 mM HEPES (4-(2-hydroxyethyl)-piperazin-1-ethansulfonic acid) and 2.5 mM Probenecid (Sigma P8761).
GPCR assays were performed using Ca^2+ optimized hematopoietic cell lines (rat) with cultures never exceeding 90% confluency. […] After seeding, the assay plates were incubated for forty-five (45) minutes at room temperature. After room temperature incubation, the assay plates were incubated at 37° C. 5% CO2 for 24 hours prior to assaying.
All GPCR assays were performed using Fluo-8 Ca^2+ dye. Ca^2+ dye was prepared at 1× dye concentration in GPCR assay buffer. After 24 hours of incubation, cells were washed with GPCR assay buffer, and then Ca^2+-dye (100 μL/well) was added.
The plates were incubated for 90 minutes at 30° C. 5% CO2 prior to FLIPR assay.
Compound plates were prepared to add 50 μL/well during the agonist assay mode. During the FLIPR assay, 50 μL/well from the compound plate was diluted 3-fold into the existing 100 μL/well from the dye loading step. Therefore all compounds were prepared as 3× the final concentration desired in the assay.
After completion of the first single addition assay run, assay plate was removed from the FLIPR Tetra and placed at 25° C. for seven (7) minutes before antagonist assay.
Using the EC80 values determined during the agonist assay, all pre-incubated sample compound and reference antagonist (if applicable) wells were stimulated at the EC80 of the reference agonist. As reference ligands for the first three assays their obvious natural ligands motilin, prostaglandin F2α, and serotonin (5-HT, 5-Hydroxytryptamine) were used; and for the P2Y1 assay 2MeSATP (2-methyl-thio-adeno-sine 5′-triphosphate, i.e. (2R,3S,4R)-5-(6-amino-2-methylsulfanyl-purin-9-yl)-3,4-dihydroxy-tetrahydrofuran-2-yl]methyl (hydroxy-phosphonooxy-phosphoryl)hydrogen phosphate) was applied.
After the addition of the reference agonist fluorescence was monitored for 180 sec using FLIPR Tetra.
Data Analysis and Results:
From the FLIPR data, with negative control correction enabled, the maximum statistic for each well was exported and percentage activation relative to Emax control was calculated.

in vitro [6] = assay type: in vitro ADME, mouse; settings: both, CD-1, mouse, plasma, 10 µM; for Plasma Stability 240 min mouse [% remain.]: 4 h
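Throughout, for Plasma Stability 240 min mouse [% remain.]: sodium citrate stabilized mouse plasma, parent compound quantified by HPLC/MS/MS relative to its peak area at time zero, run in triplicate.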
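Throughout, for Plasma Stability T½ [min] mouse: sodium citrate stabilized mouse plasma, parent compound quantified by HPLC/MS/MS relative to its peak area at time zero, run in triplicate.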

T1 sequence (O43193 whole entry, species assumed): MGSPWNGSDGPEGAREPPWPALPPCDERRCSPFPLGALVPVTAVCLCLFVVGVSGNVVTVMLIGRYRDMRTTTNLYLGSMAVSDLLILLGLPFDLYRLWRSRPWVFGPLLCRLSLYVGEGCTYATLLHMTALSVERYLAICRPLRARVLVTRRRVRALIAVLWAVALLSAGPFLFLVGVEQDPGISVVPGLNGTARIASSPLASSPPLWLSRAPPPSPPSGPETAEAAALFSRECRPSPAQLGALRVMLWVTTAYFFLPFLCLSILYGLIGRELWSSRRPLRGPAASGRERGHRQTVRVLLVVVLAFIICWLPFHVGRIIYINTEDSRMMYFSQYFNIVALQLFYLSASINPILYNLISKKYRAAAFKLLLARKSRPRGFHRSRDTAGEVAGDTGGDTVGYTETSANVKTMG

Structure (SMILES) | Metabolic Stability T½ [min] hum [1] | Metabolic Stability 60 min hum [% remain.] [1] | Metabolic Stability 60 min (rat) [% remain.] ([2]; 60 min) | Metabolic Stability T½ [min] (rat) [2] | Plasma Stability T½ [min] hum (in vitro [3]) | Plasma Stability 240 min hum [% remain.] (in vitro [3]) | Plasma Stability 240 min (rat) [% remain.] [4] | Plasma Stability T½ [min] (rat) [4] | Metabolic Stability T½ [min] mouse [5] | Metabolic Stability 60 min mouse [% remain.] [5] | half-life at 10 µM ([4]; read-out: Plasma Stability T½ [min] (rat)) | IC50 (Motilin Receptor) | inhibition at 10 µM (Motilin Receptor) | Plasma Stability T½ [min] mouse (in vitro [6]) | Plasma Stability 240 min mouse [% remain.] (in vitro [6])
CN1C(=O)c2cccc(c2)OC[C@@H]2C[C@H](N)CN2C(=O)COC[C@H]1C(=O)NCc1ccc2ccccc2c1 [Ex. 368, (4S,6S,13S)-6-amino-14-methyl-N-(2-naphthylmethyl)-9,15-dioxo-2,11-dioxa-8,14-diazatricyclo[14.3.1.0^4,8]icosa-1(20),16,18-triene-13-carboxamide] | > 60 min | 83 % remain. | 98 % remain. | 60 (60) min | > 240 min | 72 % remain. | (100) % remain. | (240) min | > 60 min | 82 % remain. |  |  |  |  | 
CN1CCC[C@H](N2CCNCC2)C(=O)N2C[C@@H](O)C[C@H]2COc2cccc(c2)C1=O [Ex. 580, (4S,6S,10S)-6-hydroxy-14-methyl-10-piperazino-2-oxa-8,14-diazatricyclo[14.3.1.0^4,8]icosa-1(20),16,18-triene-9,15-dione] | > 60 min | 100 % remain. |  |  | > 240 min | 70 % remain. | (79) % remain. | (240) min |  |  |  |  |  |  | 
CN1CCN([C@H]2CCCN(C)C(=O)c3cccc(c3)OC[C@@H]3C[C@H](O)CN3C2=O)CC1 [Ex. 581, (4S,6S,10S)-6-hydroxy-14-methyl-10-(4-methylpiperazino)-2-oxa-8,14-diazatricyclo[14.3.1.0^4,8]icosa-1(20),16,18-triene-9,15-dione] | > 60 min | 98 % remain. |  |  | > 240 min | 70 % remain. | (77) % remain. |  | > 60 min | 100 % remain. | 210 min |  |  |  | 
CN(C)CCNC(=O)[C@@H]1CCC(=O)N(C)CC(=O)N2C[C@@H](NC(=O)Cc3c[nH]c4ccccc34)C[C@H]2COc2ccc(F)cc2C(=O)N1C [Ex. 11, (2S,11S,19aS)-N-[2-(dimethylamino)ethyl]-15-fluoro-2-{[2-(1H-indol-3-yl)acetyl]amino}-7,12-dimethyl-5,8,13-trioxo-2,3,6,7,8,9,10,11,12,13, 19,19a-dodecahydro-1H,5H-pyrrolo[2,1-c] [1,4,7,12]benzoxatriazacyclopentadecine-11-carboxamide] | > 60 min | 74 % remain. |  |  | > 240 min | 100 % remain. |  |  | > 60 min | 77 % remain. |  | 0.78 µM | 79% | > 240 min | 100 % remain.
CN1CC(=O)N2C[C@@H](NC(=O)Cc3cccc4ccccc34)C[C@H]2COc2ccc(F)cc2C(=O)N(C)[C@H](C(=O)NCCN)CCC1=O [Ex. 483, (2S,11S,19aS)-N-(2-aminoethyl)-15-fluoro-7,12-dimethyl-2-{[2-(1-naphthyl)acetyl]amino)-5,8,13-trioxo-2,3,6,7,8,9,10,11,12, 13,19,19a-dodecahydro-1H,5H-pyrrolo [2,1-c] [1,4,7,12]benzoxatriazacyclopentadecine-11-carboxamide] | > 60 min | 55 % remain. |  |  | > 240 min | 100 % remain. |  |  | > 60 min | 85 % remain. |  | 0.023 µM | 100% | > 240 min | 100 % remain.
